Results published in US11370798B2 (Vertex Pharmaceuticals Incorporated, priority 2012, dated 2022).

Tested on: HCT116 colorectal cancer cells
Test: Cisplatin sensitization assay (96 h cell viability MTS);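 further: Test-compound concentration that lowers the Cisplatin IC50 by a set fold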
Assay type: cell-based
Conditions: compound and Cisplatin added simultaneously, Cisplatin sensitization value
Method in brief: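 Compound and cisplatin added together as a full matrix of 2-fold serial dilutions from a top final concentration of 10 μM; cells incubated 96 h at 37° C, 5% CO2. Viability then read by MTS after 1 h further incubation; sensitization value reported in μM bins.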

| SMILES | Cisplatin Sensitization Assay |
| --- | --- |
| CS(=O)(=O)C1CN(C(=O)C2CCN(c3ccncc3NC(=O)c3c(N)nn4cc(F)cnc34)CC2)C1 [I-G-89, 2-amino-6-fluoro-N-(4-(4-(3-(methylsulfonyl)azetidine-1-carbonyl)piperidin-1-yl)pyridin-3-yl)pyrazolo[1,5-a]pyrimidine-3-carboxamide] | + (Cisplatin sensitization value>0.2 μM but <5 μM) |
| Nc1nn2cc(F)cnc2c1C(=O)Nc1cnccc1N1CCC(C(=O)N2CC3(CCO3)C2)CC1 [I-G-90, N-(4-(4-(1-oxa-6-azaspiro[3.3]heptane-6-carbonyl)piperidin-1-yl)pyridin-3-yl)-2-amino-6-fluoropyrazolo[1,5-a]pyrimidine-3-carboxamide] | +++ (Cisplatin sensitization value of <0.02 μM) |
| CCOC1CN(C(=O)C2CCN(c3ccncc3NC(=O)c3c(N)nn4cc(F)cnc34)CC2)C1 [I-G-91, 2-amino-N-(4-(4-(3-ethoxyazetidine-1-carbonyl)piperidin-1-yl)pyridin-3-yl)-6-fluoropyrazolo[1,5-a]pyrimidine-3-carboxamide] | +++ (Cisplatin sensitization value of <0.02 μM) |
| CC1(N2CCN(C(=O)C3CCN(c4c(F)cncc4NC(=O)c4c(N)nn5cc(F)cnc45)CC3)CC2)COC1 [I-G-92, 2-amino-6-fluoro-N-(5-fluoro-4-(4-(4-(3-methyloxetan-3-yl)piperazine-1-carbonyl)piperidin-1-yl)pyridin-3-yl)pyrazolo[1,5-a]pyrimidine-3-carboxamide] | +++ (Cisplatin sensitization value of <0.02 μM) |
| CO[C@@H]1CCN(C(=O)C2CCN(c3ccncc3NC(=O)c3c(N)nn4cc(F)cnc34)CC2)C1 [I-G-93, (R)-2-amino-6-fluoro-N-(4-(4-(3-methoxypyrrolidine-1-carbonyl)piperidin-1-yl)pyridin-3-yl)pyrazolo[1,5-a]pyrimidine-3-carboxamide] | +++ (Cisplatin sensitization value of <0.02 μM) |
| CO[C@H]1CCN(C(=O)C2CCN(c3ccncc3NC(=O)c3c(N)nn4cc(F)cnc34)CC2)C1 [I-G-94, (S)-2-amino-6-fluoro-N-(4-(4-(3-methoxypyrrolidine-1-carbonyl)piperidin-1-yl)pyridin-3-yl)pyrazolo[1,5-a]pyrimidine-3-carboxamide] | +++ (Cisplatin sensitization value of <0.02 μM) |
| C[N+]1([O-])CCN(C(=O)C2CCN(c3c(F)cncc3NC(=O)c3c(N)nn4cc(F)cnc34)CC2)CC1 [I-G-95, 4-(1-(3-(2-amino-6-fluoropyrazolo[1,5-a]pyrimidine-3-carboxamido)-5-fluoropyridin-4-yl)piperidine-4-carbonyl)-1-methylpiperazine 1-oxide] | +++ (Cisplatin sensitization value of <0.02 μM) |
| CN1CC(N2CCN(C(=O)C3CCN(c4c(F)cncc4NC(=O)c4c(N)nn5cc(F)cnc45)CC3)CC2)C1 [I-G-96, 2-amino-6-fluoro-N-(5-fluoro-4-(4-(4-(1-methylazetidin-3-yl)piperazine-1-carbonyl)piperidin-1-yl)pyridin-3-yl)pyrazolo[1,5-a]pyrimidine-3-carboxamide] | +++ (Cisplatin sensitization value of <0.02 μM) |
| COCC1CN(C(=O)C2CCN(c3c(F)cncc3NC(=O)c3c(N)nn4cc(F)cnc34)CC2)C1 [I-G-98, 2-amino-6-fluoro-N-(5-fluoro-4-(4-(3-(methoxymethyl)azetidine-1-carbonyl)piperidin-1-yl)pyridin-3-yl)pyrazolo[1,5-a]pyrimidine-3-carboxamide] | +++ (Cisplatin sensitization value of <0.02 μM) |
| CO[C@H]1CCN(C(=O)C2CCN(c3c(F)cncc3NC(=O)c3c(N)nn4cc(F)cnc34)CC2)C1 [I-G-99, (S)-2-amino-6-fluoro-N-(5-fluoro-4-(4-(3-methoxypyrrolidine-1-carbonyl)piperidin-1-yl)pyridin-3-yl)pyrazolo[1,5-a]pyrimidine-3-carboxamide] | +++ (Cisplatin sensitization value of <0.02 μM) |
| Nc1nn2cc(F)cnc2c1C(=O)Nc1cnccc1N1CCN(C2COC2)CC1 [I-N-1, 2-amino-6-fluoro-N-(4-(4-(oxetan-3-yl)piperazin-1-yl)pyridin-3-yl)pyrazolo[1,5-a]pyrimidine-3-carboxamide] | ++ (Cisplatin sensitization value>0.02 μM but <0.2 μM) |
| N#CCc1cnc2c(C(=O)Nc3cnccc3N3CCC(N)CC3)c(N)nn2c1 [I-N-2, 2-amino-N-(4-(4-aminopiperidin-1-yl)pyridin-3-yl)-6-(cyanomethyl)pyrazolo[1,5-a]pyrimidine-3-carboxamide] | +++ (Cisplatin sensitization value of <0.02 μM) |
| CN1CCN(c2ccncc2NC(=O)c2c(N)nn3cc(F)cnc23)CC1 [I-N-3, 2-amino-6-fluoro-N-(4-(4-methylpiperazin-1-yl)pyridin-3-yl)pyrazolo[1,5-a]pyrimidine-3-carboxamide] | +++ (Cisplatin sensitization value of <0.02 μM) |
| CC(C)N1CCN(c2ccncc2NC(=O)c2c(N)nn3cc(F)cnc23)CC1 [I-N-4, 2-amino-6-fluoro-N-(4-(4-isopropylpiperazin-1-yl)pyridin-3-yl)pyrazolo[1,5-a]pyrimidine-3-carboxamide] | +++ (Cisplatin sensitization value of <0.02 μM) |
| CN1CCN(c2c(NC(=O)c3c(N)nn4cc(F)cnc34)cncc2C2CC2)CC1 [I-N-5, 2-amino-N-(5-cyclopropyl-4-(4-methylpiperazin-1-yl)pyridin-3-yl)-6-fluoropyrazolo[1,5-a]pyrimidine-3-carboxamide] | ++ (Cisplatin sensitization value>0.02 μM but <0.2 μM) |
| Nc1nn2cc(F)cnc2c1C(=O)Nc1cnccc1-n1ccnc1 [I-N-7, N-(4-(1H-imidazol-1-yl)pyridin-3-yl)-2-amino-6-fluoropyrazolo[1,5-a]pyrimidine-3-carboxamide] | ++ (Cisplatin sensitization value>0.02 μM but <0.2 μM) |
| CNCCc1cnn(-c2ccncc2NC(=O)c2c(N)nn3cc(F)cnc23)c1 [I-N-8, 2-amino-6-fluoro-N-(4-(4-(2-(methylamino)ethyl)-1H-pyrazol-1-yl)pyridin-3-yl)pyrazolo[1,5-a]pyrimidine-3-carboxamide] | + (Cisplatin sensitization value>0.2 μM but <5 μM) |
| CN(C)CCc1cnn(-c2ccncc2NC(=O)c2c(N)nn3cc(F)cnc23)c1 [I-N-9, 2-amino-N-(4-(4-(2-(dimethylamino)ethyl)-1H-pyrazol-1-yl)pyridin-3-yl)-6-fluoropyrazolo[1,5-a]pyrimidine-3-carboxamide] | + (Cisplatin sensitization value>0.2 μM but <5 μM) |
| Nc1nn2cc(F)cnc2c1C(=O)Nc1cnccc1N1CCN([C@@H]2CCOC2)CC1 [I-N-10, (R)-2-amino-6-fluoro-N-(4-(4-(tetrahydrofuran-3-yl)piperazin-1-yl)pyridin-3-yl)pyrazolo[1,5-a]pyrimidine-3-carboxamide] | ++ (Cisplatin sensitization value>0.02 μM but <0.2 μM) |
| Nc1nn2cc(F)cnc2c1C(=O)Nc1cnccc1N1CCN(C2CCOCC2)CC1 [I-N-11, 2-amino-6-fluoro-N-(4-(4-(tetrahydro-2H-pyran-4-yl)piperazin-1-yl)pyridin-3-yl)pyrazolo[1,5-a]pyrimidine-3-carboxamide] | ++ (Cisplatin sensitization value>0.02 μM but <0.2 μM) |
| Nc1nn2cc(F)cnc2c1C(=O)Nc1cnccc1N1CCN([C@H]2CCOC2)CC1 [I-N-12, (S)-2-amino-6-fluoro-N-(4-(4-(tetrahydrofuran-3-yl)piperazin-1-yl)pyridin-3-yl)pyrazolo[1,5-a]pyrimidine-3-carboxamide] | +++ (Cisplatin sensitization value of <0.02 μM) |
| Nc1nn2cc(F)cnc2c1C(=O)Nc1cncc(F)c1N1CCN(C2COC2)CC1 [I-N-13, 2-amino-6-fluoro-N-(5-fluoro-4-(4-(oxetan-3-yl)piperazin-1-yl)pyridin-3-yl)pyrazolo[1,5-a]pyrimidine-3-carboxamide] | +++ (Cisplatin sensitization value of <0.02 μM) |
| CN1CCN(c2c(F)cncc2NC(=O)c2c(N)nn3cc(Cl)cnc23)CC1 [I-N-14, 2-amino-6-chloro-N-(5-fluoro-4-(4-methylpiperazin-1-yl)pyridin-3-yl)pyrazolo[1,5-a]pyrimidine-3-carboxamide] | +++ (Cisplatin sensitization value of <0.02 μM) |
| CN1CCN(c2c(F)cncc2NC(=O)c2c(N)nn3cc(F)cnc23)CC1 [I-N-15, 2-amino-6-fluoro-N-(5-fluoro-4-(4-methylpiperazin-1-yl)pyridin-3-yl)pyrazolo[1,5-a]pyrimidine-3-carboxamide] | +++ (Cisplatin sensitization value of <0.02 μM) |
| Cc1cncc(NC(=O)c2c(N)nn3cc(F)cnc23)c1N1CCN(C2COC2)CC1 [I-N-16, 2-amino-6-fluoro-N-(5-methyl-4-(4-(oxetan-3-yl)piperazin-1-yl)pyridin-3-yl)pyrazolo[1,5-a]pyrimidine-3-carboxamide] | +++ (Cisplatin sensitization value of <0.02 μM) |
| CCN1CCN(c2ccncc2NC(=O)c2c(N)nn3cc(F)cnc23)CC1 [I-N-17, 2-amino-N-(4-(4-ethylpiperazin-1-yl)pyridin-3-yl)-6-fluoropyrazolo[1,5-a]pyrimidine-3-carboxamide] | +++ (Cisplatin sensitization value of <0.02 μM) |
| Nc1nn2cc(F)cnc2c1C(=O)Nc1cnccc1N1CCN2CCC1CC2 [I-N-18, N-(4-(1,4-diazabicyclo[3.2.2]nonan-4-yl)pyridin-3-yl)-2-amino-6-fluoropyrazolo[1,5-a]pyrimidine-3-carboxamide] | ++ (Cisplatin sensitization value>0.02 μM but <0.2 μM) |
| Nc1nn2cc(F)cnc2c1C(=O)Nc1cnccc1N1CCN(CC(F)(F)F)CC1 [I-N-20, 2-amino-6-fluoro-N-(4-(4-(2,2,2-trifluoroethyl)piperazin-1-yl)pyridin-3-yl)pyrazolo[1,5-a]pyrimidine-3-carboxamide] | +++ (Cisplatin sensitization value of <0.02 μM) |
